{"source": "patent US6127379A", "about": "“Benzopyran, benzothiopyran and benzofuran derivatives as 5-HT4 antagonists” (SmithKline Beecham p.l.c., priority 1994, dated 2000)", "key": {"[1]": {"target": "T1, 5-HT4 receptor (Cavia porcellus, UniProt O70528)", "T1 construct": "guinea pig distal colon longitudinal muscle-myenteric plexus, 5-HT-evoked contraction", "T1 sequence (O70528 whole entry)": "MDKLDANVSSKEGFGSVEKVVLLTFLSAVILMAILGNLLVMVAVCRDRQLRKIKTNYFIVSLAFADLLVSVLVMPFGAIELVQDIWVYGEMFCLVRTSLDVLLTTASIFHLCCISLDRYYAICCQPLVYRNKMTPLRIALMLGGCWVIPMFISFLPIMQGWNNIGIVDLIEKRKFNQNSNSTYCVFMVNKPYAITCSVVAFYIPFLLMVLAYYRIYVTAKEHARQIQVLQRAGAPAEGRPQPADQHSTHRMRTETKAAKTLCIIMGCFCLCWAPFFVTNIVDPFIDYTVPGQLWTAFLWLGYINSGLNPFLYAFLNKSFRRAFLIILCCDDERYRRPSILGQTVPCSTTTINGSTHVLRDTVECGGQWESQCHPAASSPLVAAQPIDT", "experiment": "Guinea pig colon longitudinal muscle-myenteric plexus, 5-HT-evoked contraction", "assay_type": "cell-based", "settings": "guinea pig distal colon", "procedure": "(§1) 5-HT4 RECEPTOR ANTAGONIST ACTIVITY\nMale guinea-pigs, weighing 250-400g are used. Longitudinal muscle-myentericplexus preparations, approximately 3 cm long, are obtained from the distal colon region. These are suspended under a 0.5 g load in isolated tissue baths containing Krebs solution bubbled with 5%, CO2 in O2 and maintained at 37° C. In all experiments, the Krebs solution also contains methiothepin 10^-7 M and granisetron 10^-6 M to block effects at 5-HT1, 5-HT2 and 5-HT3 receptors.\nAfter construction of a simple concentration-response curve with 5-HT, using 30 s contact times and a 15 min dosing cycle, a concentration of 5-HT is selected so as to obtain a contraction of the muscle approximately 40-70% maximum(10^-9 M approx). The tissue is then alternately dosed every 15 min with this concentration of 5-HT and then with an approximately equi-effective concentration of the nicotine receptor stimulant, dimethylphenylpiperazinium (DMPP). After obtaining consistent responses to both 5-HT and DMPP, increasing concentrations of a putative 5-HT4 receptor antagonist are then added to the bathing solution. The effects of this compound are then determined as a percentage reduction of the contractions evoked by 5-HT or by DMPP. […] A compound which reduces the response to 5-HT but not to DMPP is believed to act as a 5-HT4 receptor antagonist."}, "[2]": {"target": "5-HT4 receptor (Sus scrofa, UniProt Q6Q253)", "sequence (Q6Q253 1-402)": "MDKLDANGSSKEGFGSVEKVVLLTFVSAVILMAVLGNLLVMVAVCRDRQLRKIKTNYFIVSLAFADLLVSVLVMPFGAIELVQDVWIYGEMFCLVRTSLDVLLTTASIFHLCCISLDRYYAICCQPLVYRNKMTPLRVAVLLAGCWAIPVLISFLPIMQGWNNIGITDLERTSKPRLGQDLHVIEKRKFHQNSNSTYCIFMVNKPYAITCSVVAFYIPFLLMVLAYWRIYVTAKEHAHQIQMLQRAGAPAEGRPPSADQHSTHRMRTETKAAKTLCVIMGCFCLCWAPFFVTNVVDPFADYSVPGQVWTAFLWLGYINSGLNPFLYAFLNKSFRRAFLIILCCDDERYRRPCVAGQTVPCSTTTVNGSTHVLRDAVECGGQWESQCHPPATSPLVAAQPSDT", "experiment": "Piglet atria spontaneous beating screen", "assay_type": "cell-based", "settings": "piglet spontaneously beating atria", "procedure": "as §1\nCompounds were tested in the piglet spontaneous beating screen (Naunyn-Schmiedeberg's Arch. Pharmacol 342, 619-622). pKB (-log10 KB) value for the compound of Examples 3 and 7 were 9.8 and 7.7 respectively."}, "[3]": {"system": "5-HT4 receptor", "experiment": "5-HT-induced motility in dog gastric pouch", "assay_type": "in vivo", "settings": "dose of 10 μg kg^-1", "procedure": "as §1\n4) 5-HT-induced motility in dog gastric pouch\nCompounds are tested in the in vivo method described in \"Stimulation of canine motility by BRL 24924, a new gastric prokinetic agent\", Bermudez et al, J. Gastrointestinal Motility, 2(4), 281-286."}}, "note": "Where a name gives a salt, the structure may show the parent alone.", "data": [{"compound": "CCCCN1CCC(CNC(=O)c2cc(Cl)cc3c2OCCC3)CC1", "note": "[Example E8, (1-Butyl-4-piperidyl)methyl-6-chloro-[2H]-3,4-dihydro-1-benzopyran-8-carboxamide hydrochloride]", "values": [{"measurement": "5-HT4 receptor antagonist activity (in words)", "setting": "[1]", "value": "particularly good activity"}]}, {"compound": "CCCCN1CCC(COC(=O)c2cc(Cl)cc3c2OCCC3)CC1", "note": "[Example E3, (1-Butyl-4-piperidyl)methyl-6-chloro-[2H]-3,4-dihydro-1-benzopyran-8-carboxylate]", "values": [{"measurement": "5-HT4 receptor antagonist activity (in words)", "setting": "[1]", "value": "particularly good activity"}, {"measurement": "pKB (-log10 KB)", "setting": "[2]", "value": 9.8}, {"measurement": "inhibition of 5-HT-induced motility", "setting": "[3]", "value": "showed inhibition"}]}, {"compound": "CCCCN1CCC(CNC(=O)c2cc(Cl)c(N)c3c2OCCC3)CC1", "note": "[Example E12, 5-Amino-(1-butyl-4-piperidyl)methyl-6-chloro-[2H]-3,4-dihydro-1-benzopyran-8-carboxamide]", "values": [{"measurement": "5-HT4 receptor antagonist activity (in words)", "setting": "[1]", "value": "particularly good activity"}]}, {"compound": "O=C(OCCN1CCCCC1)c1cc(Cl)cc2c1OCCC2", "note": "[Example E7, (1-Piperidyl)ethyl-6-chloro-[2H]-3,4-dihydro-1-benzopyran-8-carboxylate hydrochloride]", "values": [{"measurement": "pKB (-log10 KB)", "setting": "[2]", "value": 7.7}]}]}
